Source: US20200190062A1, “HETEROCYCLIC COMPOUND AND PHARMACEUTICAL COMPOSITION COMPRISING SAME” (BEYONDBIO INC., priority 2015, published 2020)
Structures can show the parent of a compound that is named as a salt.

Tests used:
[1] = test system: human colon carcinoma cell line HCT116; assay: Cell cycle change by flow cytometry, cancer cells; assay type: cell-based; details: 24 hrs
Procedure: (§1) A human colon carcinoma cell line HCT116 and a human normal lung cell line MRC5 were cultured in DMEM medium containing 10% FBS. Each cultured cells were harvested, placed in 6 well plate at 1×10^6 cells/well, and cultured at 5% CO2 and 37° C. for 16 hrs. The compounds of the above Examples at 75 nM and 150 nM in DMEM containing 5% FBS were added to the cells in each well, and after 24 hrs a change in the cell cycle was analyzed using a flow cytometry. Media of treatment groups and a control group were removed, trypsin was added to isolate cells from the plates and the cells were centrifuged at 1000 g for 3 min. The isolated cells were washed with a cold phosphate buffer (PBS) two times. Afterwards, 1 ml of 70% ethanol was added to the cells and the cells were maintained at 4° C. for 30 min or more to fix the cells. The fixed cells were centrifuged at 1000 g for 3 min to remove ethanol, and washed with phosphate buffer (PBS) two times to remove ethanol completely. The washed cells were suspended in 250 ul of PBS, 6.25 ul of 10 mg/ml RNaseA was added to the suspension and reacted for 15 min at room temperature to degrade all RNA. 12.5 ul of 1 mg/ml propidium iodide (PI, sigma) was added to stain intracellular DNA. The cell cycles of 10,000 stained cells were measured using FACS calibur (Becton-Dickinson, USA) and cell numbers present in G1, S and G2/M phases were calculated as percentage using a cell cycle analysis program. Tables 3 and 4 show the results of cell cycle analysis for the compound obtained in Example 1 in cancer cells and normal cells, respectively.

[2] = test system: human normal lung cell line MRC5; assay: Cell cycle change by flow cytometry, normal cells; assay type: cell-based; details: 24 hrs
Procedure: as §1

[3] = test system: Human colon carcinoma HCT116 cell line; assay: Tumor growth inhibition in an animal model (HCT116 xenograft); assay type: in vivo, Balb/c nude mouse; details: oral daily for 12 days; for tumor growth inhibition: vs vehicle control
Procedure: Tumor size was measured twice a week using Caliper. […] A vehicle control was 20% propylene glycol (PG) and a positive control was Xeloda at 100 mg/kg.

[4] = test system: Human glioblastoma U-87MG cell line; assay: Tumor growth inhibition by combined administration in an animal model (U-87MG xenograft); details: oral daily for 30 days; for tumor growth inhibition: vs vehicle control
Procedure: Human glioblastoma U-87MG cell line of 5×10^6 cells/0.1 ml PBS was injected subcutaneously into the right flank of a Balb/c nude mouse. When a tumor grew to 150 mm^3, 5 mice were assigned for each group so that tumor sizes of all groups are consistent and a test compound was orally administered daily. Tumor size was measured three times a week using Caliper. […] For the combined administration, TMZ was orally administered daily for the first 5 days. For the single administration, the compound of Example 61 was orally administered daily for 30 days. For the combined administration, the compound of Example 61 was administered orally daily for 34 days. 20% propylene glycol (PG) was used as a vehicle control. Tumor size (volume) was calculated from the tumor length measured in each animal using the following Equation 1.
Tumor volume=(length of major axis×length of minor axis)/2 [Equation 1]

Aβ (amyloid β protein) = assay: Inhibition of Aβ generation in B103/APP cells (Aβ42 ELISA); assay type: cell-based; details: Rattus norvegicus, 72 hrs
Procedure: The APP gene was inserted into B103 cells so that APP could be stably expressed and the resulting B103/APP cells were used to confirm inhibition of APP phosphorylation and Aβ generation.
Further, to confirm whether Aβ generation is reduced due to APP phosphorylation inhibition, 5×10^5 B103/APP cells were cultured in a 6-well plate for 16 hrs. Afterwards, the compounds obtained in the above Examples were added at 100 nM, 75 nM, 50 nM, 25 nM, 12.5 nM to a medium containing 500 ug/ml of G418 and 0.5% FBS and incubated for 72 hrs. After 72 hrs, the amount of Aβ was quantified using the medium by Human Aβ42 ELISA kit (Invitrogen).

Structure (SMILES): Nc1nccc(-c2ccc(O)c(-c3ccnc(N)n3)n2)n1 [Example 1, 2,6-bis(2-aminopyrimidin-4-yl)pyridin-3-ol]
- G1 (cell numbers as percentage) ([1]; HCT116, 75 nM): 22.3%
- G2/M (cell numbers as percentage) ([1]; HCT116, 75 nM): 51.5%
- Polyploidy (cell numbers as percentage) ([1]; HCT116, 75 nM): 16.3%
- S (cell numbers as percentage) ([1]; HCT116, 75 nM): 5.3%
- Sub-G1 (cell numbers as percentage) ([1]; HCT116, 75 nM): 4.9%
- G1 (cell numbers as percentage) ([1]; HCT116, 150 nM): 4.3%
- G2/M (cell numbers as percentage) ([1]; HCT116, 150 nM): 54.4%
- Polyploidy (cell numbers as percentage) ([1]; HCT116, 150 nM): 23.3%
- S (cell numbers as percentage) ([1]; HCT116, 150 nM): 2.6%
- Sub-G1 (cell numbers as percentage) ([1]; HCT116, 150 nM): 5.8%
- G1 (cell numbers as percentage) ([2]; MRC5, 75 nM): 50.7%
- G2/M (cell numbers as percentage) ([2]; MRC5, 75 nM): 22.8%
- Polyploidy (cell numbers as percentage) ([2]; MRC5, 75 nM): 8.8%
- S (cell numbers as percentage) ([2]; MRC5, 75 nM): 9.1%
- Sub-G1 (cell numbers as percentage) ([2]; MRC5, 75 nM): 8.8%
- G1 (cell numbers as percentage) ([2]; MRC5, 150 nM): 44.0%
- G2/M (cell numbers as percentage) ([2]; MRC5, 150 nM): 26.6%
- Polyploidy (cell numbers as percentage) ([2]; MRC5, 150 nM): 10.2%
- S (cell numbers as percentage) ([2]; MRC5, 150 nM): 6.8%
- Sub-G1 (cell numbers as percentage) ([2]; MRC5, 150 nM): 12.8%

Structure (SMILES): Nc1nccc(-c2ccc(O)c(-c3ccnc(N)n3)n2)n1 [Example 61, 2,6-bis(2-aminopyrimidin-4-yl)pyridin-3-ol 3hydrochloride]
- Tumor size ([3]; 1 mpk): 1082.4 ± 994.6 mm^3
- tumor growth inhibition ([3]; 1 mpk): 41.3%
- Tumor size ([3]; 3 mpk): 773.7 ± 253.9 mm^3
- tumor growth inhibition ([3]; 3 mpk): 58.0%
- Tumor size ([3]; 10 mpk): 647.4 ± 462.1 mm^3
- tumor growth inhibition ([3]; 10 mpk): 64.9%
- Tumor size ([3]; 30 mpk): 403.4 ± 224.1 mm^3
- tumor growth inhibition ([3]; 30 mpk): 78.1%
- Tumor size ([4]; 15 mpk alone): 3503.3 ± 674.9 mm^3
- tumor growth inhibition ([4]; 15 mpk alone): 16.8%
- Tumor size ([4]; 30 mpk alone): 2015.0 ± 1023 mm^3
- tumor growth inhibition ([4]; 30 mpk alone): 52.2%

Structure (SMILES): Cc1cc(-c2nc(-c3ccnc(N)c3F)ccc2O)nc(N)n1 [Example 71, 2′-amino-6-(2-amino-6-methylpyrimidin-4-yl)-3′-fluoro-[2,4′-bipyridin]-5-ol 3hydrochloride]
- inhibition at 0.0125 µM (Aβ (amyloid β protein); 12.5 nM): 37.6%
- inhibition at 0.025 µM (Aβ (amyloid β protein); 25 nM): 36.2%
- inhibition at 0.05 µM (Aβ (amyloid β protein); 50 nM): 46.7%
- inhibition at 0.075 µM (Aβ (amyloid β protein); 75 nM): 76.8%
- inhibition at 0.1 µM (Aβ (amyloid β protein); 100 nM): 100%
